Reference: patent US6525001B1, “Substituted pyrimidine and pyridine herbicides” (Mid-American Commercialization Corporation, priority 1997, dated 2003)

Assays:
Assay in all cases: Test B pre-/postemergence
Assay type in all cases: in vivo
Parameters in all cases: key: 0 is no effect; 10 is complete control
[1] = test system: pigweed (Amaranthus retroflexus)
Summary of the method: (§1)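 Compounds in a surfactant-containing, non-phytotoxic solvent blend are applied to freshly planted seed (preemergence) and, concurrently, to seedlings of 2 to 18 cm at 1–4 leaves (postemergence). Plants stay in the greenhouse twelve to sixteen days and are then scored visually from 0 (no effect) to 10 (complete control).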

[2] = test system: soybean (Glycine max)
Summary of the method: as §1

[3] = test system: giant foxtail (Setaria faberii)
Summary of the method: as §1

[4] = test system: sugar beet (Beta vulgaris)
Summary of the method: as §1

[5] = test system: wild oat (Avena fatua)
Summary of the method: as §1

[6] = test system: bedstraw (Galium aparine)
Summary of the method: as §1

[7] = test system: cocklebur (Xanthium strumarium)
Summary of the method: as §1

[8] = test system: momingglory (Ipomoea hederacea)
Summary of the method: as §1

[9] = test system: crabgrass (Digitaria sanguinalis)
Summary of the method: as §1

[10] = test system: wheat (Triticum aestivum)
Summary of the method: as §1

[11] = test system: rape (Brassica napus)
Summary of the method: as §1

[12] = test system: corn (Zea mays)
Summary of the method: as §1

[13] = test system: purple nutsedge (Cyperus rotundus)
Summary of the method: as §1

[14] = test system: velvetleaf (Abutilon theophrasti)
Summary of the method: as §1

Cc1cnc(-c2ccc(C(F)(F)F)cc2)nc1Cn1cnc(C(F)(F)F)c1 [Compound 10]
Plant response rating, Redroot pigweed ([1]; Rate 62 g/ha, Postemergence): 9 | Redroot pigweed plant response rating ([1]; Rate 62 g/ha, Preemergence): 3 | Plant response rating, Redroot pigweed ([1]; Rate 125 g/ha, Postemergence): 9 | Redroot pigweed plant response rating ([1]; Rate 125 g/ha, Preemergence): 6 | Plant response rating, Redroot pigweed ([1]; Rate 250 g/ha, Postemergence): 9 | Plant response rating, Redroot pigweed ([1]; Rate 250 g/ha, Preemergence): 7 | Plant response rating, Redroot pigweed ([1]; Rate 500 g/ha, Postemergence): 9 | Plant response rating, Redroot pigweed ([1]; Rate 500 g/ha, Preemergence): 7 | Plant response rating, Soybean ([2]; Rate 62 g/ha, Postemergence): 6 | Soybean plant response rating ([2]; Rate 62 g/ha, Preemergence): 0 | Plant response rating, Soybean ([2]; Rate 125 g/ha, Postemergence): 6 | Soybean plant response rating ([2]; Rate 125 g/ha, Preemergence): 0 | Plant response rating, Soybean ([2]; Rate 250 g/ha, Postemergence): 8 | Plant response rating, Soybean ([2]; Rate 250 g/ha, Preemergence): 1 | Plant response rating, Soybean ([2]; Rate 500 g/ha, Postemergence): 8 | Plant response rating, Soybean ([2]; Rate 500 g/ha, Preemergence): 1 | Plant response rating, Giant foxtail ([3]; Rate 62 g/ha, Postemergence): 2 | Giant foxtail plant response rating ([3]; Rate 62 g/ha, Preemergence): 3 | Plant response rating, Giant foxtail ([3]; Rate 125 g/ha, Postemergence): 2 | Giant foxtail plant response rating ([3]; Rate 125 g/ha, Preemergence): 7 | Plant response rating, Giant foxtail ([3]; Rate 250 g/ha, Postemergence): 4 | Plant response rating, Giant foxtail ([3]; Rate 250 g/ha, Preemergence): 8 | Plant response rating, Giant foxtail ([3]; Rate 500 g/ha, Postemergence): 5 | Plant response rating, Giant foxtail ([3]; Rate 500 g/ha, Preemergence): 9 | Plant response rating, Sugarbeets ([4]; Rate 62 g/ha, Postemergence): 8 | Sugarbeets plant response rating ([4]; Rate 62 g/ha, Preemergence): 6 | Plant response rating, Sugarbeets ([4]; Rate 125 g/ha, Postemergence): 8 | Plant response rating, Sugarbeets ([4]; Rate 250 g/ha, Postemergence): 9 | Plant response rating, Sugarbeets ([4]; Rate 250 g/ha, Preemergence): 6 | Plant response rating, Sugarbeets ([4]; Rate 500 g/ha, Postemergence): 9 | Plant response rating, Sugarbeets ([4]; Rate 500 g/ha, Preemergence): 10 | Plant response rating, Wild oats ([5]; Rate 62 g/ha, Postemergence): 2 | Wild oats plant response rating ([5]; Rate 62 g/ha, Preemergence): 0 | Plant response rating, Wild oats ([5]; Rate 125 g/ha, Postemergence): 2 | Wild oats plant response rating ([5]; Rate 125 g/ha, Preemergence): 1 | Plant response rating, Wild oats ([5]; Rate 250 g/ha, Postemergence): 2 | Plant response rating, Wild oats ([5]; Rate 250 g/ha, Preemergence): 2 | Plant response rating, Wild oats ([5]; Rate 500 g/ha, Postemergence): 3 | Plant response rating, Wild oats ([5]; Rate 500 g/ha, Preemergence): 4 | Plant response rating, Bedstraw ([6]; Rate 62 g/ha, Postemergence): 8 | Bedstraw plant response rating ([6]; Rate 62 g/ha, Preemergence): 3 | Plant response rating, Bedstraw ([6]; Rate 125 g/ha, Postemergence): 9 | Bedstraw plant response rating ([6]; Rate 125 g/ha, Preemergence): 7 | Plant response rating, Bedstraw ([6]; Rate 250 g/ha, Postemergence): 10 | Plant response rating, Bedstraw ([6]; Rate 250 g/ha, Preemergence): 7 | Plant response rating, Bedstraw ([6]; Rate 500 g/ha, Postemergence): 10 | Plant response rating, Bedstraw ([6]; Rate 500 g/ha, Preemergence): 10 | Plant response rating, Cocklebur ([7]; Rate 62 g/ha, Postemergence): 6 | Plant response rating, Cocklebur ([7]; Rate 125 g/ha, Postemergence): 8 | Plant response rating, Cocklebur ([7]; Rate 250 g/ha, Postemergence): 9 | Plant response rating, Cocklebur ([7]; Rate 250 g/ha, Preemergence): 1 | Plant response rating, Cocklebur ([7]; Rate 500 g/ha, Postemergence): 9 | Plant response rating, Cocklebur ([7]; Rate 500 g/ha, Preemergence): 3 | Plant response rating, Morningglory ([8]; Rate 62 g/ha, Postemergence): 5 | Morningglory plant response rating ([8]; Rate 62 g/ha, Preemergence): 2 | Plant response rating, Morningglory ([8]; Rate 125 g/ha, Postemergence): 7 | Morningglory plant response rating ([8]; Rate 125 g/ha, Preemergence): 3 | Plant response rating, Morningglory ([8]; Rate 250 g/ha, Postemergence): 7 | Plant response rating, Morningglory ([8]; Rate 250 g/ha, Preemergence): 9 | Plant response rating, Morningglory ([8]; Rate 500 g/ha, Postemergence): 9 | Plant response rating, Morningglory ([8]; Rate 500 g/ha, Preemergence): 10 | Plant response rating, Crabgrass ([9]; Rate 62 g/ha, Postemergence): 2 | Crabgrass plant response rating ([9]; Rate 62 g/ha, Preemergence): 5 | Plant response rating, Crabgrass ([9]; Rate 125 g/ha, Postemergence): 2 | Crabgrass plant response rating ([9]; Rate 125 g/ha, Preemergence): 7 | Plant response rating, Crabgrass ([9]; Rate 250 g/ha, Postemergence): 4 | Plant response rating, Crabgrass ([9]; Rate 250 g/ha, Preemergence): 9 | Plant response rating, Crabgrass ([9]; Rate 500 g/ha, Postemergence): 6 | Plant response rating, Crabgrass ([9]; Rate 500 g/ha, Preemergence): 9 | Plant response rating, Wheat ([10]; Rate 62 g/ha, Postemergence): 2 | Wheat plant response rating ([10]; Rate 62 g/ha, Preemergence): 0 | Plant response rating, Wheat ([10]; Rate 125 g/ha, Postemergence): 3 | Wheat plant response rating ([10]; Rate 125 g/ha, Preemergence): 0 | Plant response rating, Wheat ([10]; Rate 250 g/ha, Postemergence): 3 | Plant response rating, Wheat ([10]; Rate 250 g/ha, Preemergence): 0 | Plant response rating, Wheat ([10]; Rate 500 g/ha, Postemergence): 3 | Plant response rating, Wheat ([10]; Rate 500 g/ha, Preemergence): 1 | Plant response rating, Rape ([11]; Rate 62 g/ha, Postemergence): 8 | Rape plant response rating ([11]; Rate 62 g/ha, Preemergence): 3 | Plant response rating, Rape ([11]; Rate 125 g/ha, Postemergence): 9 | Rape plant response rating ([11]; Rate 125 g/ha, Preemergence): 4 | Plant response rating, Rape ([11]; Rate 250 g/ha, Postemergence): 9 | Plant response rating, Rape ([11]; Rate 250 g/ha, Preemergence): 4 | Plant response rating, Rape ([11]; Rate 500 g/ha, Postemergence): 9 | Plant response rating, Rape ([11]; Rate 500 g/ha, Preemergence): 7 | Plant response rating, Corn ([12]; Rate 62 g/ha, Postemergence): 2 | Corn plant response rating ([12]; Rate 62 g/ha, Preemergence): 0 | Plant response rating, Corn ([12]; Rate 125 g/ha, Postemergence): 2 | Corn plant response rating ([12]; Rate 125 g/ha, Preemergence): 0 | Plant response rating, Corn ([12]; Rate 250 g/ha, Postemergence): 3 | Plant response rating, Corn ([12]; Rate 250 g/ha, Preemergence): 0 | Plant response rating, Corn ([12]; Rate 500 g/ha, Postemergence): 3 | Plant response rating, Corn ([12]; Rate 500 g/ha, Preemergence): 1 | Plant response rating, Nutsedge ([13]; Rate 62 g/ha, Postemergence): 0 | Nutsedge plant response rating ([13]; Rate 62 g/ha, Preemergence): 0 | Plant response rating, Nutsedge ([13]; Rate 125 g/ha, Postemergence): 0 | Nutsedge plant response rating ([13]; Rate 125 g/ha, Preemergence): 0 | Plant response rating, Nutsedge ([13]; Rate 250 g/ha, Postemergence): 0 | Plant response rating, Nutsedge ([13]; Rate 250 g/ha, Preemergence): 0 | Plant response rating, Nutsedge ([13]; Rate 500 g/ha, Postemergence): 3 | Plant response rating, Nutsedge ([13]; Rate 500 g/ha, Preemergence): 0 | Plant response rating, Velvetleaf ([14]; Rate 62 g/ha, Postemergence): 6 | Velvetleaf plant response rating ([14]; Rate 62 g/ha, Preemergence): 5 | Plant response rating, Velvetleaf ([14]; Rate 125 g/ha, Postemergence): 7 | Velvetleaf plant response rating ([14]; Rate 125 g/ha, Preemergence): 7 | Plant response rating, Velvetleaf ([14]; Rate 250 g/ha, Postemergence): 8 | Plant response rating, Velvetleaf ([14]; Rate 250 g/ha, Preemergence): 8 | Plant response rating, Velvetleaf ([14]; Rate 500 g/ha, Postemergence): 9 | Plant response rating, Velvetleaf ([14]; Rate 500 g/ha, Preemergence): 8
